Measurements reported in US20260356819A1, “OXOISOINDOLINYL-SUBSTITUTED […] DERIVATIVE AND USE THEREOF” (GLUETACS THERAPEUTICS (SHANGHAI) CO., LTD., priority 2023, published 2026).

How the values were obtained:
Format in all cases: cell-based
Conditions in all cases: compounds at 50 nM and 500 nM
IKZF1 = target: T1, IKZF1 (Homo sapiens, UniProt Q13422+Q96SW2); experiment: Western blot degradation of IKZF1 in hPBMCs (24 h)
T1 construct: The supernatant was aspirated as the extracted total cell protein; endogenous in cells; host or cells: human peripheral blood mononuclear cells (hPBMCs)
Procedure, shortened: (§1)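 In this assay, each compound was incubated with human PBMCs for 24 h at 50 nM and 500 nM. Target levels were measured by Western blot densitometry normalised to an internal control.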

CK1α = target: T2, CK1α (Homo sapiens, UniProt P48729+Q96SW2); experiment: Western blot degradation of CK1α in hPBMCs (24 h)
T2 construct: The supernatant was aspirated as the extracted total cell protein; endogenous in cells; host or cells: human peripheral blood mononuclear cells (hPBMCs)
Procedure, shortened: as §1

IKZF2 = target: T3, IKZF2 (Homo sapiens, UniProt Q96SW2+Q9UKS7); experiment: Western blot degradation of IKZF2 in hPBMCs (24 h)
T3 construct: The supernatant was aspirated as the extracted total cell protein; endogenous in cells; host or cells: human peripheral blood mononuclear cells (hPBMCs)
Procedure, shortened: as §1

IKZF3 = target: T4, IKZF3 (Homo sapiens, UniProt Q96SW2+Q9UKT9); experiment: Western blot degradation of IKZF3 in hPBMCs (24 h)
T4 construct: The supernatant was aspirated as the extracted total cell protein; endogenous in cells; host or cells: human peripheral blood mononuclear cells (hPBMCs)
Procedure, shortened: as §1

WEE1 = target: T5, WEE1 (Homo sapiens, UniProt P30291+Q96SW2); experiment: Western blot degradation of WEE1 in hPBMCs (24 h)
T5 construct: The supernatant was aspirated as the extracted total cell protein; endogenous in cells; host or cells: human peripheral blood mononuclear cells (hPBMCs)
Procedure, shortened: as §1

GSPT1 = target: T6, GSPT1 (Homo sapiens, UniProt P15170+Q96SW2); experiment: Western blot degradation of GSPT1 in hPBMCs (24 h)
T6 construct: The supernatant was aspirated as the extracted total cell protein; endogenous in cells; host or cells: human peripheral blood mononuclear cells (hPBMCs)
Procedure, shortened: as §1

T4 sequence (Q9UKT9 whole entry): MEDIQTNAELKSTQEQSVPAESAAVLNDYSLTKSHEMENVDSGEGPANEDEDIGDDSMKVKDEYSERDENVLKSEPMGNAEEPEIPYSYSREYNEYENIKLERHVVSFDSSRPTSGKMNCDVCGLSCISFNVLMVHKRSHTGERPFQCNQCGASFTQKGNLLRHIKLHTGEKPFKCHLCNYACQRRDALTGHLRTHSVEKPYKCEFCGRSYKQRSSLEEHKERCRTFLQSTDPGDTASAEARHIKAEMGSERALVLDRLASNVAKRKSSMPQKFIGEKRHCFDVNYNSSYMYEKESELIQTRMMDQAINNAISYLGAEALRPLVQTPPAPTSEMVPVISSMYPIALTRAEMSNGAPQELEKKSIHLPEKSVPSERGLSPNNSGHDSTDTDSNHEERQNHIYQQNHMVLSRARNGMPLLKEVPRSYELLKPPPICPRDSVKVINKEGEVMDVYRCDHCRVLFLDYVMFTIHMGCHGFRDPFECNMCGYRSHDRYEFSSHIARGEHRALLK
T4 sequence (Q96SW2 whole entry): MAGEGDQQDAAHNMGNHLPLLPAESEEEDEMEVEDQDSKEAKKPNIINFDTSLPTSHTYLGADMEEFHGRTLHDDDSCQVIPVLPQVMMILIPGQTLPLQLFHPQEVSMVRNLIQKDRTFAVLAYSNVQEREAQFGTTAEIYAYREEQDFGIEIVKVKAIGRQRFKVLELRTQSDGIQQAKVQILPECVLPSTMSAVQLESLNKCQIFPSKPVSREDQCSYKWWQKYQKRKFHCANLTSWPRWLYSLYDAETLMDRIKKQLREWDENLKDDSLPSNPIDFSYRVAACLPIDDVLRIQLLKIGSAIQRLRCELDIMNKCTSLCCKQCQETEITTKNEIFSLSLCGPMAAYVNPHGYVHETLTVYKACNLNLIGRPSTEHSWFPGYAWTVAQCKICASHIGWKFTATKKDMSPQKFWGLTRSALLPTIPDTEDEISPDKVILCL
T4 sequence (Q16531 whole entry partner): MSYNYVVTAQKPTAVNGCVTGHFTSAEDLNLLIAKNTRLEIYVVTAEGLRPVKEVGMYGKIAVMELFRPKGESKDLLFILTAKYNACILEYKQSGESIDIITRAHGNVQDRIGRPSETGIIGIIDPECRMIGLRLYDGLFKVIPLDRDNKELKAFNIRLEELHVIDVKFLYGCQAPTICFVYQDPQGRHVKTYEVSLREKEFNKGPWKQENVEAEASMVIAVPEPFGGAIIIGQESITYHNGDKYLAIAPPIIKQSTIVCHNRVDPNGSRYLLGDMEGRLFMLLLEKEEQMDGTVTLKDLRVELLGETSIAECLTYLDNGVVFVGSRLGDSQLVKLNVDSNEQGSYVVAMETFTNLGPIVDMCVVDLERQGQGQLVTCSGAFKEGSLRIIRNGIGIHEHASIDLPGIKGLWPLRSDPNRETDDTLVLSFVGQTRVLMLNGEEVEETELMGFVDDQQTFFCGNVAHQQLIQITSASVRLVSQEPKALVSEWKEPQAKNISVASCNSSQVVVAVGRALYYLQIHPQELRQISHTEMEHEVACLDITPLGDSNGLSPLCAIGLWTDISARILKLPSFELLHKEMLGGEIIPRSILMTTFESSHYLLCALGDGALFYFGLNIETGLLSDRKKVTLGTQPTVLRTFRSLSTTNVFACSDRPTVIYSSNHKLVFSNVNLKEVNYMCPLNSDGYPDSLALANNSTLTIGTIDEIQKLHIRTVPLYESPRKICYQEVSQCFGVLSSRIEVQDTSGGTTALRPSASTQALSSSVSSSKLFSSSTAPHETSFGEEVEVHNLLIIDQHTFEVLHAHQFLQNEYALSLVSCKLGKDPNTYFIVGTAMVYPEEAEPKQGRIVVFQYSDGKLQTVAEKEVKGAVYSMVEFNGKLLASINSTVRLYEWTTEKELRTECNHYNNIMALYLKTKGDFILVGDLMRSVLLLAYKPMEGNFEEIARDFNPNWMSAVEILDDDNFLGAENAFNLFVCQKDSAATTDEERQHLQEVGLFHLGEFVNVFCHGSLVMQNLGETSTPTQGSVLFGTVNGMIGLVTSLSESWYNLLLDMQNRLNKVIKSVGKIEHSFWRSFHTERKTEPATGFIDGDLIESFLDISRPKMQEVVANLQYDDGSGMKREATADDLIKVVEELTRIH
T2 sequence (P48729 whole entry): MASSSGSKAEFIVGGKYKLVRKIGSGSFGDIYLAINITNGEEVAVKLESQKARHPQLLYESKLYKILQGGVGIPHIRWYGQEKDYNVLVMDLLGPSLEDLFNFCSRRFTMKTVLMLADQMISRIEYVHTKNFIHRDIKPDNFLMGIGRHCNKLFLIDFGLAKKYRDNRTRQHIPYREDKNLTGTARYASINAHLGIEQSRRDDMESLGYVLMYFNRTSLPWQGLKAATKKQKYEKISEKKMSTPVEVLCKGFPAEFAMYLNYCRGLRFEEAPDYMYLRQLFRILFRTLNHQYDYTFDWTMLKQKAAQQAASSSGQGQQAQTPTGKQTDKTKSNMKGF
T2 sequence (Q96SW2 whole entry): as the sequence (Q96SW2 whole entry) above
T2 sequence (Q16531 whole entry partner): as the sequence (Q16531 whole entry partner) above
T6 sequence (P15170 whole entry): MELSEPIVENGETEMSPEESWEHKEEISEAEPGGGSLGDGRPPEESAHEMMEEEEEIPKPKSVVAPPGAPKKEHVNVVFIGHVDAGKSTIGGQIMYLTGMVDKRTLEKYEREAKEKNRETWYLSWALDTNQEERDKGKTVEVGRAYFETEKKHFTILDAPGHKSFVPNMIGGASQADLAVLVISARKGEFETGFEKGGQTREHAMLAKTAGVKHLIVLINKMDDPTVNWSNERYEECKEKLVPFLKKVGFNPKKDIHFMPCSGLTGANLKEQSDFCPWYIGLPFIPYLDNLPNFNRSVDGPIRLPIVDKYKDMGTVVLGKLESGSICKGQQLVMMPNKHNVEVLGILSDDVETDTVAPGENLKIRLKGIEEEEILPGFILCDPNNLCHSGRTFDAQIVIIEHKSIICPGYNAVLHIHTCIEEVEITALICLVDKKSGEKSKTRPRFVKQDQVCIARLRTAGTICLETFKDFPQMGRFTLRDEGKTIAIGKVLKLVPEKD
T6 sequence (Q96SW2 whole entry): as the sequence (Q96SW2 whole entry) above
T6 sequence (Q16531 whole entry partner): as the sequence (Q16531 whole entry partner) above
T5 sequence (P30291 whole entry): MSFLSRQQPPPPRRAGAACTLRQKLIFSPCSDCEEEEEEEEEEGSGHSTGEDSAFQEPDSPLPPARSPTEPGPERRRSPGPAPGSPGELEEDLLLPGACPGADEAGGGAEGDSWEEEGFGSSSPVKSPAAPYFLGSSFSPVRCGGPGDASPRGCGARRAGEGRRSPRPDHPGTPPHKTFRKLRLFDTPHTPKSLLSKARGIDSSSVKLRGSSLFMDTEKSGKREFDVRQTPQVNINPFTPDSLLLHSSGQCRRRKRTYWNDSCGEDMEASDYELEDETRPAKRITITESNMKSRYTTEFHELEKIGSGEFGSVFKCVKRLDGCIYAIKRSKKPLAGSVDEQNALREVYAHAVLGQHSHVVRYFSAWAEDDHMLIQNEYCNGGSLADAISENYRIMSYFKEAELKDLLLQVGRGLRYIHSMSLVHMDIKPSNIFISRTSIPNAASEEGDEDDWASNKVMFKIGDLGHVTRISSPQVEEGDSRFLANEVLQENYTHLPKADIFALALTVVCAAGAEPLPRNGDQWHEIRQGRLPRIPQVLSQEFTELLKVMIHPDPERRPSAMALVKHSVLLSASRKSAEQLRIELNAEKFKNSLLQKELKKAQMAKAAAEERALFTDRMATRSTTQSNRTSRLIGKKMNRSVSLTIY
T5 sequence (Q96SW2 whole entry): as the sequence (Q96SW2 whole entry) above
T5 sequence (Q16531 whole entry partner): as the sequence (Q16531 whole entry partner) above
T1 sequence (Q13422 whole entry): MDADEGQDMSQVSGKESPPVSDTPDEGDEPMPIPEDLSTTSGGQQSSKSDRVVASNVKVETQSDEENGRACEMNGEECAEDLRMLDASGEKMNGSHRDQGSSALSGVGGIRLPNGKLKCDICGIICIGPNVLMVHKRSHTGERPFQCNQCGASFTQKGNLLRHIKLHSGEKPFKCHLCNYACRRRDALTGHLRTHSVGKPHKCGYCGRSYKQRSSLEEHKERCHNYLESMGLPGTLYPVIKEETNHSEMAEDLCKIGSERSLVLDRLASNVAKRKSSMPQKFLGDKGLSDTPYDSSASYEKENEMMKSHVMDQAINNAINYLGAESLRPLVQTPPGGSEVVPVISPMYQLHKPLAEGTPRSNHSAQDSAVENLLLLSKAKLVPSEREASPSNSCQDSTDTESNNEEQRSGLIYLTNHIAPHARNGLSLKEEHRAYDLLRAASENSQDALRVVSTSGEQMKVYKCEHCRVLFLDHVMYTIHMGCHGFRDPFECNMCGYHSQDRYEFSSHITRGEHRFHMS
T1 sequence (Q96SW2 whole entry): as the sequence (Q96SW2 whole entry) above
T1 sequence (Q16531 whole entry partner): as the sequence (Q16531 whole entry partner) above

Compound	IKZF1 substrate protein remaining % (IKZF1)	CK1α substrate protein remaining % (CK1α)	IKZF2 substrate protein remaining % (IKZF2)	IKZF3 substrate protein remaining % (IKZF3)	WEE1 substrate protein remaining % (WEE1)	GSPT1 substrate protein remaining % (GSPT1)
CC1(C)CCC(CN2CC3CC2CN3Cc2ccc3c(c2)CN(N2CCC(=O)NC2=O)C3=O)=C(c2ccc(Cl)cc2)C1 (stereo not drawn) [GT-07329, 1-(5-((5-((4′-chloro-5,5-dimethyl-3,4,5,6-tetrahydro-[1,1′-biphenyl]-2-yl)methyl)-2,5-diazabicyclo[2.2.1]heptan-2-yl)methyl)-1-oxoisoindolin-2-yl)dihydropyrimidine-2,4(1H,3H)-dione]	B (80%< substrate protein remaining % ≤100%)	B (80%< substrate protein remaining % ≤100%)	B (80%< substrate protein remaining % ≤100%)	B (80%< substrate protein remaining % ≤100%)	A (0% ≤ substrate protein remaining % ≤80%)	A (0% ≤ substrate protein remaining % ≤80%)
CC1(C)CCC(CN2CC3CCC(C2)N3Cc2ccc3c(c2)CN(N2CCC(=O)NC2=O)C3=O)=C(c2ccc(Cl)cc2)C1 [GT-07330, 1-(5-((3-((4′-chloro-5,5-dimethyl-3,4,5,6-tetrahydro-[1,1′-biphenyl]-2-yl)methyl)-3,8-diazabicyclo[3.2.1]octan-8-yl)methyl)-1-oxoisoindolin-2-yl)dihydropyrimidine-2,4(1H,3H)-dione]	A (0% ≤ substrate protein remaining % ≤80%)	B (80%< substrate protein remaining % ≤100%)	A (0% ≤ substrate protein remaining % ≤80%)	A (0% ≤ substrate protein remaining % ≤80%)	A (0% ≤ substrate protein remaining % ≤80%)	A (0% ≤ substrate protein remaining % ≤80%)
CC1(C)CCC(CN2CC3CCC2CN3Cc2ccc3c(c2)CN(N2CCC(=O)NC2=O)C3=O)=C(c2ccc(Cl)cc2)C1 (stereo not drawn) [GT-07331, 1-(5-((5-((4′-chloro-5,5-dimethyl-3,4,5,6-tetrahydro-[1,1′-biphenyl]-2-yl)methyl)-2,5-diazabicyclo[2.2.2]octan-2-yl)methyl)-1-oxoisoindolin-2-yl)dihydropyrimidine-2,4(1H,3H)-dione]	A (0% ≤ substrate protein remaining % ≤80%)	A (0% ≤ substrate protein remaining % ≤80%)	B (80%< substrate protein remaining % ≤100%)	A (0% ≤ substrate protein remaining % ≤80%)	A (0% ≤ substrate protein remaining % ≤80%)	A (0% ≤ substrate protein remaining % ≤80%)
CC1(C)CC(c2ccc(Cl)cc2)=C(CN2CCN(Cc3ccc4c(c3)CN(N3CCC(=O)NC3=O)C4=O)CC2)CO1 [GT-07332, 1-(5-((4-((4-(4-chlorophenyl)-6,6-dimethyl-5,6-dihydro-2H-pyran-3-yl)methyl)piperazin-1-yl)methyl)-1-oxoisoindolin-2-yl)dihydropyrimidine-2,4(1H,3H)-dione]	A (0% ≤ substrate protein remaining % ≤80%)	B (80%< substrate protein remaining % ≤100%)	B (80%< substrate protein remaining % ≤100%)	A (0% ≤ substrate protein remaining % ≤80%)	A (0% ≤ substrate protein remaining % ≤80%)	A (0% ≤ substrate protein remaining % ≤80%)
CC1(C)CCC(CN2CC3CCC(C2)N3Cc2ccc3c(c2)C(=O)N(N2CCC(=O)NC2=O)C3=O)=C(c2ccc(Cl)cc2)C1 [GT-07333, 5-((3-((4′-chloro-5,5-dimethyl-3,4,5,6-tetrahydro-[1,1′-biphenyl]-2-yl)methyl)-3,8-diazabicyclo[3.2.1]octan-8-yl)methyl)-2-(2,4-dioxotetrahydropyrimidin-1(2H)-yl)isoindoline-1,3-dione]	B (80%< substrate protein remaining % ≤100%)	B (80%< substrate protein remaining % ≤100%)	B (80%< substrate protein remaining % ≤100%)	B (80%< substrate protein remaining % ≤100%)	B (80%< substrate protein remaining % ≤100%)	A (0% ≤ substrate protein remaining % ≤80%)
CC1(C)CCC(CN2CC3CC2CN3Cc2ccc3c(c2)C(=O)N(N2CCC(=O)NC2=O)C3=O)=C(c2ccc(Cl)cc2)C1 (stereo not drawn) [GT-07334, 5-((5-((4′-chloro-5,5-dimethyl-3,4,5,6-tetrahydro-[1,1′-biphenyl]-2-yl)methyl)-2,5-diazabicyclo[2.2.1]heptan-2-yl)methyl)-2-(2,4-dioxotetrahydropyrimidin-1(2H)-yl)isoindoline-1,3-dione]	B (80%< substrate protein remaining % ≤100%)	A (0% ≤ substrate protein remaining % ≤80%)	B (80%< substrate protein remaining % ≤100%)	B (80%< substrate protein remaining % ≤100%)	A (0% ≤ substrate protein remaining % ≤80%)	B (80%< substrate protein remaining % ≤100%)
Cc1cscc1C1CCN(Cc2ccc3c(c2)CN(N2CCC(=O)NC2=O)C3=O)CC1 [GT-07372, 1-(5-((4-(4-methylthiophen-3-yl)piperidin-1-yl)methyl)-1-oxoisoindolin-2-yl)dihydropyrimidine-2,4(1H,3H)-dione]	B (80%< substrate protein remaining % ≤100%)	B (80%< substrate protein remaining % ≤100%)	B (80%< substrate protein remaining % ≤100%)	A (0% ≤ substrate protein remaining % ≤80%)	B (80%< substrate protein remaining % ≤100%)	A (0% ≤ substrate protein remaining % ≤80%)
Cc1cc(C2CCN(Cc3ccc4c(c3)CN(N3CCC(=O)NC3=O)C4=O)CC2)cs1 [GT-07373, 1-(5-((4-(5-methylthiophen-3-yl)piperidin-1-yl)methyl)-1-oxoisoindolin-2-yl)dihydropyrimidine-2,4(1H,3H)-dione]	B (80%< substrate protein remaining % ≤100%)	B (80%< substrate protein remaining % ≤100%)	B (80%< substrate protein remaining % ≤100%)	A (0% ≤ substrate protein remaining % ≤80%)	B (80%< substrate protein remaining % ≤100%)	A (0% ≤ substrate protein remaining % ≤80%)
O=C1CCN(N2Cc3cc(CN4CCC(c5ccco5)CC4)ccc3C2=O)C(=O)N1 [GT-07374, 1-(5-((4-(furan-2-y1)piperidin-1-yl)methyl)-1-oxoisoindolin-2-yl)dihydropyrimidine-2,4(1H,3H)-dione]	B (80%< substrate protein remaining % ≤100%)	A (0% ≤ substrate protein remaining % ≤80%)	B (80%< substrate protein remaining % ≤100%)	B (80%< substrate protein remaining % ≤100%)	B (80%< substrate protein remaining % ≤100%)	A (0% ≤ substrate protein remaining % ≤80%)
O=C1CCN(N2Cc3cc(CN4CCC(c5ccoc5)CC4)ccc3C2=O)C(=O)N1 [GT-07375, 1-(5-((4-(furan-3-yl)piperidin-1-yl)methyl)-1-oxoisoindolin-2-yl)dihydropyrimidine-2,4(1H,3H)-dione]	B (80%< substrate protein remaining % ≤100%)	A (0% ≤ substrate protein remaining % ≤80%)	B (80%< substrate protein remaining % ≤100%)	B (80%< substrate protein remaining % ≤100%)	B (80%< substrate protein remaining % ≤100%)	A (0% ≤ substrate protein remaining % ≤80%)
O=C1CCN(N2Cc3cc(CN4C5CC4CN(C(=O)C4=C(c6ccc(F)cc6)CCCC4)C5)ccc3C2=O)C(=O)N1 [GT-07376, 1-(5-((3-(4′-fluoro-3,4,5,6-tetrahydro-[1,1′-biphenyl]-2-carbonyl)-3,6-diazabicyclo[3.1.1]heptan-6-yl)methyl)-1-oxoisoindolin-2-yl)dihydropyrimidine-2,4(1H,3H)-dione]	B (80%< substrate protein remaining % ≤100%)	B (80%< substrate protein remaining % ≤100%)	B (80%< substrate protein remaining % ≤100%)	B (80%< substrate protein remaining % ≤100%)	A (0% ≤ substrate protein remaining % ≤80%)	B (80%< substrate protein remaining % ≤100%)
